From patent publication US20100136024A1, “Selective Inhibition of Histone Deacetylase 6 for Ocular Neuroprotection or for Treatment or Control of Glaucoma” (priority 2008, published 2010)
Like-named read-outs stand apart in the source and are kept apart here.

What was measured:
HDAC6 [1] = target: T1, HDAC6 (Homo sapiens, UniProt Q9UBN7); settings: Itoh et al. enzyme assay; cited from earlier work
T1 sequence (Q9UBN7 1-1215): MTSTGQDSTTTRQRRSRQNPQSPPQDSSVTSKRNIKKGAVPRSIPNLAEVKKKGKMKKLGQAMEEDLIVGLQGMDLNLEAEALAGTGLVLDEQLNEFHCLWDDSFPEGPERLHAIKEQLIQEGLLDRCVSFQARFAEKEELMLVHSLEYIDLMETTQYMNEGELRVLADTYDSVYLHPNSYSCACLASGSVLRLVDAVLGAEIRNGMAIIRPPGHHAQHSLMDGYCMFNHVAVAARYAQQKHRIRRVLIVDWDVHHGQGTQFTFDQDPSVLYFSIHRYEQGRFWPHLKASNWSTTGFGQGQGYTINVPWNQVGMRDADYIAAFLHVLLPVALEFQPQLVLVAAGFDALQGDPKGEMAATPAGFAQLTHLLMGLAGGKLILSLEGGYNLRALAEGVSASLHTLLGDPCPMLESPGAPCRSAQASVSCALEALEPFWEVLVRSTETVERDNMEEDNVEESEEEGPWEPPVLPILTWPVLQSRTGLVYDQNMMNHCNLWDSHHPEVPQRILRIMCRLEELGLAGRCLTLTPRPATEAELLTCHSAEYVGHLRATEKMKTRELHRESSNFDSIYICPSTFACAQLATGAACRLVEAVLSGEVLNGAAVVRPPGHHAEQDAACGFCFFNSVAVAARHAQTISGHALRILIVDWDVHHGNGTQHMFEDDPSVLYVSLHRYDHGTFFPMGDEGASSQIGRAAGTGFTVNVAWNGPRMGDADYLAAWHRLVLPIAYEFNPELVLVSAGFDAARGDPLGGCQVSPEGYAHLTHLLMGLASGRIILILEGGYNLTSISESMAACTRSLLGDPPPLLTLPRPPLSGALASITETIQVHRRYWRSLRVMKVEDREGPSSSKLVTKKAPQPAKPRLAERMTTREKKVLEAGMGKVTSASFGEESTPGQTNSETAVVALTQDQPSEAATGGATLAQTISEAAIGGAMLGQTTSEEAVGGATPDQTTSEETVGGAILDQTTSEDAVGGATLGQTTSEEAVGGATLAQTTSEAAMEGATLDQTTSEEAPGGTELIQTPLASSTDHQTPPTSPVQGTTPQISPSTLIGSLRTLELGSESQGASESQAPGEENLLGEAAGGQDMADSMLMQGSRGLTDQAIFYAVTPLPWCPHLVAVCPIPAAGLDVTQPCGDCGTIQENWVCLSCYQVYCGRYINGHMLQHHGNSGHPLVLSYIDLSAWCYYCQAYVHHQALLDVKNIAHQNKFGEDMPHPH

A549 cells = settings: cited from earlier work
[2] = system: histone acetylation, gene-expression patterns, cell-cycle progression; settings: Haggarty et al.; cited from earlier work
[3] = system: HDAC6-mediated α-tubulin deacetylation; settings: Haggarty et al.; cited from earlier work
HDAC6 [4] = target: T1, HDAC6; test: HDAC6 inhibition and selectivity, '853 Patent; type: biochemical; settings: worked out from the IC50 of '853 Patent FIG. 3
Text: Id., col. 114, lines 64-65. […] Id., col. 115, lines 37-38. […] Id., col. 137.
The '853 Patent provides, in its FIG. 3, the following data regarding the HDAC6 selective activity of compound 10, in comparison with other preferred but non-selective inhibitors of HDAC1 and HDAC6, i.e., compounds 8 and 9: […]

HDAC1 = HDAC1 (Homo sapiens, UniProt Q13547); settings: '853 Patent FIG. 3; read-out: Inhibiting Concentration IC50 for HDAC1; cited from earlier work
HDAC6 [5] = target: T1, HDAC6; settings: '853 Patent FIG. 3; read-out: Inhibiting Concentration IC50 for HDAC6; cited from earlier work

HDAC1, sequence (Q13547 whole entry, species assumed): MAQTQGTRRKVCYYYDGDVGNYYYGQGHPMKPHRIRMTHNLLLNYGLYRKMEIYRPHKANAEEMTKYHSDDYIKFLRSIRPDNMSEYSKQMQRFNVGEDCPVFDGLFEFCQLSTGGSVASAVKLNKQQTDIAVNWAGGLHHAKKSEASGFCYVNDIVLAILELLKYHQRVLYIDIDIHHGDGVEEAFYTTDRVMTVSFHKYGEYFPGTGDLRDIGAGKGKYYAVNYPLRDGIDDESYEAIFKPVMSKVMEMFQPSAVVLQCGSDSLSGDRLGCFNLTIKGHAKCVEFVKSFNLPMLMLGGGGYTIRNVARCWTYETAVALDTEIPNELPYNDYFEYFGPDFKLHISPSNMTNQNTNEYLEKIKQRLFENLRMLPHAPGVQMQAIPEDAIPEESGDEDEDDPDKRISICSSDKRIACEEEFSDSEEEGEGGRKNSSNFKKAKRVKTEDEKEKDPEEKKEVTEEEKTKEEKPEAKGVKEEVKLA

CC(C)(C)OC(=O)N[C@@H](CCCCCS)C(=O)NC1CCCCCC1 [Compound 18a, (S)-tert-butyl 1-(cycloheptylamino)-7-mercapto-1-oxoheptan-2-ylcarbamate]
selectivity HDAC1/HDAC6 (HDAC1 IC50/HDAC6 IC50) (HDAC6 [1]): 39 | selectivity HDAC4/HDAC6 (HDAC4 IC50/HDAC6 IC50) (HDAC6 [1]): 37

CC(C)(C)OC(=O)N[C@@H](CCCCCS)C(=O)Nc1cnc2ccccc2c1 [Compound 15a]
IC50 (HDAC6 [1]): 32 nM | selectivity HDAC1/HDAC6 (HDAC1 IC50/HDAC6 IC50) (HDAC6 [1]): 1.6 | selectivity HDAC4/HDAC6 (HDAC4 IC50/HDAC6 IC50) (HDAC6 [1]): 1.0

CC(C)(C)NC(=O)[C@H](CCCCCS)NC(=O)OC(C)(C)C [Compound 19a, (S)-tert-butyl 1-(tert-butylamino)-7-mercapto-1-oxoheptan-2-ylcarbamate]
IC50 (HDAC6 [1]): 71 nM | selectivity HDAC1/HDAC6 (HDAC1 IC50/HDAC6 IC50) (HDAC6 [1]): 42 | selectivity HDAC4/HDAC6 (HDAC4 IC50/HDAC6 IC50) (HDAC6 [1]): 26

CC(C)(C)OC(=O)N[C@@H](CCCCCS)C(=O)Nc1cccc(-c2ccccc2)c1 [Compound 13a]
IC50 (HDAC6 [1]): 54 nM | selectivity HDAC1/HDAC6 (HDAC1 IC50/HDAC6 IC50) (HDAC6 [1]): 1.6 | selectivity HDAC4/HDAC6 (HDAC4 IC50/HDAC6 IC50) (HDAC6 [1]): 1.0

O=C(CCCCCCC(=O)Nc1ccc([C@H]2O[C@@H](CSc3nc(-c4ccccc4)c(-c4ccccc4)o3)C[C@@H](c3ccc(CO)cc3)O2)cc1)NO [tubacin]
effect on histone (lysine) acetylation (A549 cells): no effect | concentration at which α-tubulin activity (acetylation) is increased (A549 cells; concentrations as low as): ≤ 125 nM | effect on level of histone acetylation, gene-expression patterns, or cell-cycle progression [2]: does not affect | inhibition of α-tubulin deacetylation [3]: selective and reversible inhibitor

CC(C)(C)OC(=O)N[C@@H](CCCCCS)C(=O)NC1CCCCC1 [Compound 17a, (S)-tert-butyl 1-(cyclohexylamino)-7-mercapto-1-oxoheptan-2-ylcarbamate]
selectivity HDAC1/HDAC6 (HDAC1 IC50/HDAC6 IC50) (HDAC6 [1]): 35 | selectivity HDAC4/HDAC6 (HDAC4 IC50/HDAC6 IC50) (HDAC6 [1]): 32

CC(C)(C)OC(=O)N[C@@H](CCCCCS)C(=O)NC1CCCC1 [Compound 16a, (S)-tert-butyl 1-(cyclopentylamino)-7-mercapto-1-oxoheptan-2-ylcarbamate]
selectivity HDAC1/HDAC6 (HDAC1 IC50/HDAC6 IC50) (HDAC6 [1]): 42 | selectivity HDAC4/HDAC6 (HDAC4 IC50/HDAC6 IC50) (HDAC6 [1]): 36

O=C(CCCC(=O)NCc1ccccc1)NO [Compound 10]
times more selective for HDAC6 than HDAC1 (HDAC6 [4]): about four | IC50 (HDAC1): 1500 ± 500 nM | IC50 (HDAC6 [5]): 380 ± 40 nM

CC(C)(C)OC(=O)N[C@@H](CCCCCS)C(=O)NC12CC3CC(CC(C3)C1)C2 [Compound 20a, (S)-tert-butyl 1-(adamant-1-ylamino)-7-mercapto-1-oxoheptan-2-ylcarbamate]
IC50 (HDAC6 [1]): 82 nM | selectivity HDAC1/HDAC6 (HDAC1 IC50/HDAC6 IC50) (HDAC6 [1]): 46 | selectivity HDAC4/HDAC6 (HDAC4 IC50/HDAC6 IC50) (HDAC6 [1]): 51
